The term IC50 denotes the point on the concentration scale where inhibition reaches its midpoint. A higher IC50 goes with weaker potency in that assay.

The target of the assay is T1, MAGL (Homo sapiens, UniProt Q99685).
T1 sequence (Q99685 1-303): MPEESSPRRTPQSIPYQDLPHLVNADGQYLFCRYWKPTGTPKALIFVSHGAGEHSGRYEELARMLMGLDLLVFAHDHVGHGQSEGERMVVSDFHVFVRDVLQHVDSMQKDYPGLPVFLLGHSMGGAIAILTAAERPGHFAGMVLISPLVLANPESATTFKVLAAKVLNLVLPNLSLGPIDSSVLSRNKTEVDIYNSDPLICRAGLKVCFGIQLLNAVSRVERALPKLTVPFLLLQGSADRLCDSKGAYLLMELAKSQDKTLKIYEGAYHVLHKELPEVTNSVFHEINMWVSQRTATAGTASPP
In words: 2-AG assay: MAGL inhibition followed by hydrolysis of 2-arachidonoylglycerol to arachidonic acid, mass spectrometry. It counts as biochemical. The following applies: measured in 2-AG assay (footnote [a]); substrate 2-arachidonoylglycerol 8 μM, 30 min at RT. The text has this: Alternatively, compounds were profiled for MAGL inhibitory activity by determining the enzymatic activity by following the hydrolysis of the natural substrate, 2-arachidonoylglycerol, resulting in arachidonic acid, which can be followed by mass spectrometry. This assay is hereinafter abbreviated “2-AG assay”.
Detection by mass spectrometry in the present 2-AG assay has the advantage over known optical assays that the natural enzyme substrate, 2-arachidonoylglycerol, can be used instead of structurally unrelated compounds needed for optical readouts (such as 4-NPA). It thereby delivers more relevant data for activity determination, reduces false positives and generally adds to data quality. In addition, this assay reduces the analysis time from about 10 minutes per sample with standard methods to under 10 seconds per sample. This allows for using the present 2-AG assay in a method for high throughput screening of compounds for their MAGL inhibitory activity.
The 2-AG assay was carried out in 384 well assay plates (PP, Greiner Cat #784201) in a total volume of 20 μL. Compound dilutions were made in 100% DMSO (VWR Chemicals 23500.297) in a polypropylene plate in 3-fold dilution steps to give a final concentration range in the assay from 12.5 μM to […]. 0.25 μL compound dilutions (100% DMSO) were added to 9 μL MAGL in assay buffer (50 mM TRIS (GIBCO, 15567-027), 1 mM EDTA (Fluka, 03690-100 mL), 0.01% (v/v) Tween. After shaking, the plate was incubated for 15 min at RT. To start the reaction, 10 μL 2-arachidonoylglycerol in assay buffer was added. The final concentrations in the assay was […] and 8 μM 2-arachidonoylglyerol. After shaking and 30 min incubation at RT, the reaction was quenched by the addition of 40 μL of acetonitrile containing 4 μM of d8-arachidonic acid. The amount of arachidonic acid was traced by an online SPE system (Agilent Rapidfire) coupled to a triple quadrupole mass spectrometer (Agilent 6460). A C18 SPE cartridge (G9205A) was used in an acetonitrile/water liquid setup. The mass spectrometer was operated in negative electrospray mode following the mass transitions 303.1→259.1 for arachidonic acid and 311.1→267.0 for d8-arachidonic acid. The activity of the compounds was calculated based on the ratio of intensities [arachidonic acid/d8-arachidonic acid].
In a preferred embodiment, the method for determining the MAGL inhibitory activity of a test compound according to the invention, comprises: • (i) providing a solution of a test compound; • (ii) adding the solution of step (i) to a solution of MAGL; • (iii) shaking the mixture obtained from step (ii); • (iv) incubating the mixture obtained from step (iii); • (v) adding a solution of 2-arachidonoylglycerol; • (vi) incubating the mixture obtained from step (v); • (vii) adding a solution of d8-arachidonic acid; and • (viii) determining the ratio of intensities arachidonic acid/d8-arachidonic acid using a mass spectrometer.
As for `O=C1CO[C@H]2CCN(C(=O)N3CC(CNC(c4ccc(Cl)cc4Cl)C(F)(F)F)C3)C[C@H]2N1` (stereo partly drawn) [Example 69, (4aR,8aS)-6-(3-(((1-(2,4-Dichlorophenyl)-2,2,2-trifluoroethyl)amino)methyl)azetidine-1-carbonyl)hexahydro-2H-pyrido[4,3-b][1,4]oxazin-3(4H)-one], 0.008 µM corresponded to half-maximal inhibition (IC50). To `Cc1cccc(C)c1C#CC1CCN(C(=O)N2CC[C@@H]3OCC(=O)N[C@@H]3C2)CC1` [Example 195, (4aR,8aS)-6-(4-((2,6-Dimethylphenyl)ethynyl)piperidine-1-carbonyl)hexahydro-2H-pyrido[4,3-b][1,4]oxazin-3(4H)-one] belongs 0.025 µM; to `O=C1CO[C@H]2CCN(C(=O)N3CC(CNC(c4ccc(F)cc4)C(F)(F)F)C3)C[C@H]2N1` (stereo partly drawn) [Example 106, (4aR,8aS)-6-[3-[[[2,2,2-Trifluoro-1-(4-fluorophenyl)ethyl]amino]methyl]azetidine-1-carbonyl]-4,4a,5,7,8,8a-hexahydropyrido[4,3-b][1,4]oxazin-3-one], 0.264 µM; to `O=C1CO[C@H]2CCN(C(=O)N3CC([S+]([O-])c4ccc(C(F)(F)F)cc4Cl)C3)C[C@H]2N1` (mixture of isomers) [Example 145, (4aR,8aS)-6-[3-[2-Chloro-4-(trifluoromethyl)phenyl]sulfinylazetidine-1-carbonyl]-4,4a,5,7,8,8a-hexahydropyrido[4,3-b][1,4]oxazin-3-one], 5.62 µM. To `CN(C(=O)Cc1cccc(C(F)(F)F)c1Cl)C1CCN(C(=O)N2CC[C@@H]3OCC(=O)N[C@@H]3C2)CC1` [Example 83, N-[1-[(4aR,8aS)-3-oxo-4,4a,5,7,8,8a-hexahydropyrido[4,3-b][1,4]oxazine-6-carbonyl]piperidin-4-yl]-2-[2-chloro-3-(trifluoromethyl)phenyl]-N-methylacetamide] belongs 0.608 µM; to `O=C1CO[C@H]2CCN(C(=O)N3CC(C#Cc4ccccc4OC(F)F)C3)C[C@H]2N1` [Example 175, (4aR,8aS)-6-[3-[2-[2-(Difluoromethoxy)phenyl]ethynyl]azetidine-1-carbonyl]-4,4a,5,7,8,8a-hexahydropyrido[4,3-b][1,4]oxazin-3-one], 0.033 µM; to `Cc1ccccc1C#CC1CCN(C(=O)N2CC[C@@H]3OCC(=O)N[C@@H]3C2)CC1` [Example 194, (4aR,8aS)-6-(4-(o-Tolylethynyl)piperidine-1-carbonyl)hexahydro-2H-pyrido[4,3-b][1,4]oxazin-3(4H)-one], 0.031 µM. As for `COc1ccccc1C#CC1CCN(C(=O)N2CC[C@@H]3OCC(=O)N[C@@H]3C2)CC1` [Example 193, (4aR,8aS)-6-(4-((2-Methoxyphenyl)ethynyl)piperidine-1carbonyl)hexahydro-2H-pyrido[4,3-b][1,4]oxazin-3(4H)-one], the IC50 worked out at 0.086 µM.

In turn, `COCc1ccccc1C#CC1CN(C(=O)N2CC[C@@H]3OCC(=O)N[C@@H]3C2)C1` [Example 191, (4aR,8aS)-6-[3-[2-[2-(Methoxymethyl)phenyl]ethynyl]azetidine-1-carbonyl]-4,4a,5,7,8,8a-hexahydropyrido[4,3-b][1,4]oxazin-3-one] returned an IC50 of 0.081 µM. The same measure for `O=C1CO[C@H]2CCN(C(=O)N3CCC(C#Cc4ccc(Cl)cc4Cl)CC3)C[C@H]2N1` [Example 131, (+)-(4aR,8aS)-6-[4-[2-(2,4-Dichlorophenyl)ethynyl]piperidine-1carbonyl]-4,4a,5,7,8,8a-hexahydropyrido[4,3-b][1,4]oxazin-3-one]: 0.022 µM; for `O=C1CO[C@H]2CCN(C(=O)N3CC(CNC(c4ccc(C(F)(F)F)cc4)C(F)(F)F)C3)C[C@H]2N1` (stereo partly drawn) [Example 41, (4aR,8aS)-6-[3-[[[2,2,2-Trifluoro-1-[4-(trifluoromethyl)phenyl]ethyl]amino]methyl]azetidine-1-carbonyl]hexahydro-2H-pyrido[4,3-b][1,4]oxazin-3(4H)-one]: 0.024 µM; for `Cc1cccc(C)c1C#CC1CN(C(=O)N2CC[C@@H]3OCC(=O)N[C@@H]3C2)C1` [Example 169, (4aR,8aS)-6-[3-[2-(2,6-Dimethylphenyl)ethynyl]azetidine-1-carbonyl]-4,4a,5,7,8,8a-hexahydropyrido[4,3-b][1,4]oxazin-3-one]: 0.004 µM. On to `O=C1CO[C@H]2CCN(C(=O)N3CCC(C#Cc4ccccc4C(F)(F)F)CC3)C[C@H]2N1` [Example 192, (4aR,8aS)-6-(4-((2-(Trifluoromethyl)phenyl)ethynyl)piperidine-1-carbonyl)hexahydro-2H-pyrido[4,3-b][1,4]oxazin-3(4H)-one], for which the IC50 is 0.018 µM. In the case of `O=C1CO[C@H]2CCN(C(=O)N3CC(C#CC4(O)CCCC4)C3)C[C@H]2N1` [Example 198, (4aR,8aS)-6-[3-[2-(1-Hydroxycyclopentyl)ethynyl]azetidine-1-carbonyl]-4,4a,5,7,8,8a-hexahydropyrido[4,3-b][1,4]oxazin-3-one], it took 0.507 µM to reach half-maximal inhibition (IC50). To `COc1cccc(C#CC2CN(C(=O)N3CC[C@@H]4OCC(=O)N[C@@H]4C3)C2)c1` [Example 181, (4aR,8aS)-6-[3-[2-(3-Methoxyphenyl)ethynyl]azetidine-1-carbonyl]-4,4a,5,7,8,8a-hexahydropyrido[4,3-b][1,4]oxazin-3-one] belongs 0.013 µM; to `COc1cccc(C#CC2CN(C(=O)N3CC[C@@H]4OCC(=O)N[C@@H]4C3)C2)c1C` [Example 183, (4aR,8aS)-6-[3-[2-(3-Methoxy-2-methylphenyl)ethynyl]azetidine-1-carbonyl]-4,4a,5,7,8,8a-hexahydropyrido[4,3-b][1,4]oxazin-3-one], 0.011 µM.

Turning to `O=C1CO[C@H]2CCN(C(=O)N3CCC(C(NCc4cccc(C(F)(F)F)c4)C(F)(F)F)CC3)C[C@H]2N1` (stereo partly drawn) [Example 107, (4aR,8aS)-6-[4-[2,2,2-Trifluoro-1-[[3-(trifluoromethyl)phenyl]methylamino]ethyl]piperidine-1-carbonyl]-4,4a,5,7,8,8a-hexahydropyrido[4,3-b][1,4]oxazin-3-one], 0.055 µM corresponded to half-maximal inhibition (IC50). Regarding `O=C1CO[C@H]2CCN(C(=O)N3CC(C#Cc4ccc(C5CC5)cc4Cl)C3)C[C@H]2N1` [Example 162, (4aR,8aS)-6-(3-((2-Chloro-4-cyclopropylphenyl)ethynyl)azetidine-1-carbonyl)hexahydro-2H-pyrido[4,3-b][1,4]oxazin-3(4H)-one], the half-maximal inhibitory concentration (IC50) turned out to be 0.001 µM. To `O=C1CO[C@H]2CCN(C(=O)N3CC(C#Cc4ccc(Cl)s4)C3)C[C@H]2N1` [Example 187, (4aR,8aS)-6-[3-[2-(5-Chlorothiophen-2-yl)ethynyl]azetidine-1-carbonyl]-4,4a,5,7,8,8a-hexahydropyrido[4,3-b][1,4]oxazin-3-one] belongs 0.018 µM; to `O=C1CO[C@H]2CCN(C(=O)N3CC(Sc4ccc(C(F)(F)F)cc4Cl)C3)C[C@H]2N1` [Example 143, (4aR,8aS)-6-[3-[2-Chloro-4-(trifluoromethyl)phenyl]sulfanylazetidine-1-carbonyl]-4,4a,5,7,8,8a-hexahydropyrido[4,3-b][1,4]oxazin-3-one], 0.105 µM.

These data come from US20210277020A1, “HETEROCYCLIC COMPOUNDS AS MONOACYLGLYCEROL LIPASE INHIBITORS” (Hoffmann-La Roche Inc., priority 2018, published 2021).
